From US20260285815A1, “Imidazolidinyl Vanillic Acid Ether Derivative and Use Thereof” (priority 2022, published 2026)
Where two headings read alike, the source gives them in different places.

Assays:
in vivo = assay: in vivo; parameters: species or system SD rats; settings: rat, po, 15 mg/kg
Procedure: Eighteen SD male rats (purchased from Weitong Lihua Experimental Animal Technology Co., Ltd., certificate number: 20211103Aazz0619000910), weighing 240-280 g, were randomly divided into 6 groups, with 3 rats in each group. The animals were fasted overnight before administration. On the day of administration, the compounds of Examples 3, 4, 5, 6, Compound A. and Compound A methyl ester were gavaged to the animals in each groups respectively, and the dosage was 15 mg/kg (calculated as Compound A). Before administration and 0.25, 0.5, 1, 2, 4, 6, 8, and 24 h after administration, 0.15 mL of blood was collected from the animals through the jugular sinus and placed in an EDTA-K2 anticoagulant tube containing 3 μL of dichlorvos aqueous solution (10 mg/mL). After centrifugation, plasma was collected, and was placed in the sample, and then 10 μL of plasma sample was taken, 500 μL of acetonitrile containing IS (verapamil 5 ng·mL^−1, glibenclamide 50 ng·mL^−1, tolbutamide 200 ng·mL^−1, and diclofenac 200 ng·mL^−1) was added, vortexed for 10 min, and then centrifuged at 3700 rpm for 10 min, and then 70 μL of supernatant and 70 μL of water were added, and vortexed for 10 min. An aliquot of 2 μL of the mixture was injected into the LC-MS/MS system (Triple Quad 5500+: LC-MS-MS-022) to measure blood concentration of the compounds. WinNonlin 8.0 software was used to analyze the pharmacokinetic parameters.

[1] = tested on: arteriovenous bypass thrombi in rats; assay: Antithrombotic activity in vivo: arteriovenous bypass thrombosis in rats; settings: for inhibition at 15 mg/kg: Rattus norvegicus, po
Procedure: Each group was given corresponding drugs by gavage (dosage was 15 mg/kg), and the normal control group was given an equal volume of solvent, all of which were given by single gavage. One hour after the last administration, the rats were anesthetized with 3% chloral hydrate intraperitoneally, and the right common carotid artery and left external jugular vein were isolated in a supine position. A polyethylene tube was taken with an inner diameter of 1.5 mm and a length of 10 cm, a 6 cm long silk thread (pre-weighed) was inserted into it, and the polyethylene tube was filled with normal saline solution of heparin (50 U/ml). One end of the polyethylene tube was inserted into the left external jugular vein, heparin (50 U/kg) was injected, and the other end was inserted into the right common carotid artery. After blood flow was opened for 15 minutes, the blood flow was interrupted and the silk thread was quickly taken out and weighed. The total weight minus the original silk thread weight was the wet weight of the thrombus. The silk thread was placed in an oven for drying at 70° C. The dry weight of the thrombus was obtained by weighing the silk thread minus the original silk thread weight, and the inhibition rate was calculated.

[2] = background statement; cited from earlier work
[3] = background statement; cited from earlier work; remark: listed apart in the source
[4] = tested on: adenosine diphosphate (ADP)-induced platelet aggregation; settings: rabbit; from CN101851209B; cited from earlier work

Structure (SMILES) | AUC(0-inf) (in vivo) [ng·h/mL] | AUC(0-t) (in vivo) [ng·h/mL] | Cmax (in vivo) [ng/mL] | F (bioavailability relative to compound A) (in vivo) [%] | MRT last (in vivo) [h] | Tmax (in vivo) [h] | half-life (in vivo) [h] | inhibition at 15 mg/kg ([1]; read-out: Inhibition rate (thrombus dry weight)) [%] | inhibition at 15 mg/kg ([1]; read-out: Inhibition rate (thrombus wet weight)) [%] | Thrombus wet weight ([1]; rat arteriovenous bypass, 15 mg/kg single gavage, 1 h after dosing, 15 min blood flow, x ± s, n = 8) | Thrombus dry weight ([1]; rat arteriovenous bypass, 15 mg/kg single gavage, thread dried at 70° C., x ± s, n = 8) | Oral bioavailability [2] | Ability to penetrate the blood-brain barrier [3] | Inhibitory effect on ADP-induced platelet aggregation [4]
COc1cc(C(=O)OCOC(=O)OC(C)C)ccc1OCCn1ccnc1 [Example 5, ((isopropoxycarbonyl)oxy)methyl-4-(2-(1H-imidazol-1-yl)ethoxy)-3-methoxybenzoate] | 3000 | 2890 | 7080 | 179.28 | 0.85 | 0.25 | 3.43 | – | – | – | – | – | – | –
COC(=O)c1ccc(OCCn2ccnc2)c(OC)c1 [Compound A methyl ester, reference compound] | 1600 | 1490 | 513 | 92.18 | 6.5 | 0.46 | 8.4 | – | – | – | – | – | – | –
COc1cc(C(=O)OCCCCCC(=O)O)ccc1OCCn1ccnc1 [Example 3, 6-(4-(2-(1H-imidazol-1-yl)ethoxy)-3-methoxybenzoyloxy)hexanoic acid] | 3380 | 3230 | 8590 | 200.37 | 0.47 | 0.25 | 3.06 | – | – | – | – | – | – | –
COc1cc(C(=O)OC(C)OC(C)=O)ccc1OCCn1ccnc1 (centres unmarked) [Example 6, 1-acetoxyethyl-4-(2-(1H-imidazol-1-yl)ethoxy)-3-methoxybenzoate] | 3170 | 2850 | 8140 | 176.8 | 1.09 | 0.25 | 4.86 | – | – | – | – | – | – | –
COc1cc(C(=O)O)ccc1OCCn1ccnc1 [Compound A, reference compound] | 1720 | 1610 | 604 | – | 5.4 | 0.35 | 10.7 | 36 | 31 | 69.8 ± 11.2^★★ mg | 21.8 ± 6.0^★★ mg | low | weak | significant inhibitory effect
